Reference: patent publication US20100056468A1, “Pyrimidine Derivatives As Anticancer Agents” (University Health Network, priority 2007, published 2010)

What was measured:
Test in all cases: In vitro cell proliferation assay (WST.1, Table 5)
CCD967 = assay type: cell-based; details: Homo sapiens, CCD-967, 72 h; CCD967 normal skin line, day 3
Protocol: (§1) These cell lines were grown in Iscove's MDM supplemented with 5% fetal calf serum (FCS), 50 μM 2-mercaptoethanol, 100 μg/ml penicillin, and 100 μg/ml streptomycin. Cell lines growing in suspension were maintained at 0.5-1.5×10^6 cell/ml, while adherent cell lines were maintained at subconfluent densities.
(§2) Cell lines were seeded in triplicate at 10^4 cells/100 μl in 96-well plates. Peripheral blood mononuclear cells were seeded in triplicate at 10^5 cells/100 μl in 96-well plate. Different test compounds were added immediately at final concentrations ranging between 0 to 100 μM. All compounds were dissolved in sterile deionized water, so water was added to the control wells. On day 3, WST.1 assay (Roche) was used to measure the effect of different test compounds on cell growth. WST.1 assay is a calorimetric assay for the nonradioactive quantification of cell proliferation, cell viability, and cytotoxicity. The assay was performed according to manufacturer's instructions (Roche). It relies on the cleavage by cellular enzymes of WST.1 (water soluble tetrazolium salt: 4-[3-(4-iodophenyl)-2-(4-nitrophenyl)-2H-5-tetrazolio]-1,3-benzene disulfonate) to formazan. The amount of formazan dye formed correlates to the number of metabolically active cells in the culture and is readily read in an ELISA microplate reader using an absorbance wavelength of 440 nm. These OD values are plotted against concentrations of different compounds and IC50 is determined for each compound.

COLO205 = assay type: cell-based; details: Homo sapiens, COLO 205, 72 h; COLO205, day 3
Protocol: as §1, §2

HS58T = assay type: cell-based; details: Homo sapiens, 72 h, day 3
Protocol: as §1, §2

MCF7 = assay type: cell-based; details: Homo sapiens, 72 h; MCF7, day 3
Protocol: as §1, §2

MDA468 = assay type: cell-based; details: Homo sapiens, 72 h; MDA468, day 3
Protocol: as §1, §2

OCI-AML-1 = assay type: cell-based; details: Homo sapiens, 72 h; OCI-AML-1, day 3
Protocol: as §1, §2

OCI-AML-2 = assay type: cell-based; details: Homo sapiens, OCI-AML2, 72 h; OCI-AML-2, day 3
Protocol: as §1, §2

OCI-Ly-7 = assay type: cell-based; details: Homo sapiens, OCI-Ly7, 72 h; OCI-Ly-7, day 3
Protocol: as §1, §2

OCI-My-2 = assay type: cell-based; details: Homo sapiens, 72 h; OCI-My-2, day 3
Protocol: as §1, §2

OCVR4 = assay type: cell-based; details: Homo sapiens, 72 h; OCVR4, day 3
Protocol: as §1, §2

PC3 = assay type: cell-based; details: Homo sapiens, PC-3, 72 h; PC3, day 3
Protocol: as §1, §2

SKW3 = assay type: cell-based; details: Homo sapiens, 72 h; SKW3, day 3
Protocol: as §1, §2

SNB19 = assay type: cell-based; details: Homo sapiens, SNB-19, 72 h; SNB19, day 3
Protocol: as §1, §2

T47D = assay type: cell-based; details: Homo sapiens, 72 h, day 3
Protocol: as §1, §2

LOX = assay type: cell-based, human; details: Homo sapiens, 72 h, day 3
Protocol: as §1, §2

| IC50 (COLO205) | IC50 (MCF7) | IC50 (OCI-AML-1) | IC50 (OCI-AML-2) | IC50 (OCI-Ly-7) | IC50 (OCI-My-2) | IC50 (PC3) | IC50 (SKW3) | IC50 (T47D) | SMILES | IC50 (CCD967) | IC50 (HS58T) | IC50 (MDA468) | IC50 (OCVR4) | IC50 (SNB19) | IC50 (LOX) |
| --- | --- | --- | --- | --- | --- | --- | --- | --- | --- | --- | --- | --- | --- | --- | --- |
| > 50 µM | > 50 µM | > 50 µM | > 50 µM | > 50 µM | > 50 µM | > 50 µM | > 50 µM | > 50 µM | N#Cc1cc(=O)[nH]c(=O)n1[C@@H]1O[C@H](CO)C(O)C1O (stereo partly drawn) | > 50 µM | > 50 µM | > 50 µM | > 50 µM | > 50 µM | > 50 µM |
| > 50 µM | > 50 µM | 15.3 µM | > 50 µM | > 50 µM | 27.8 µM | > 50 µM | 18.9 µM | > 50 µM | O=c1cc(I)n([C@@H]2O[C@H](CO)C(O)C2O)c(=O)[nH]1 (stereo partly drawn) | > 50 µM | > 50 µM | > 50 µM | > 50 µM | > 50 µM | > 50 µM |
| > 50 µM | > 50 µM | > 50 µM | > 50 µM | > 50 µM | 42.3 µM | > 50 µM | > 50 µM | > 50 µM | CCOC(=O)c1cc(=O)[nH]c(=O)n1[C@@H]1O[C@H](CO)C(O)C1O (stereo partly drawn) | > 50 µM | > 50 µM | > 50 µM | > 50 µM | > 50 µM | > 50 µM |
| > 50 µM | > 50 µM | > 50 µM | > 50 µM | > 50 µM | > 50 µM | > 50 µM | > 50 µM | > 50 µM | [N-]=[N+]=Nc1cc(=O)[nH]c(=O)n1[C@@H]1O[C@H](CO)C(O)C1O (stereo partly drawn) | > 50 µM | > 50 µM | > 50 µM | > 50 µM | > 50 µM | > 50 µM |
| > 50 µM | > 50 µM | > 50 µM | > 50 µM | > 50 µM | > 50 µM | > 50 µM | > 50 µM | > 50 µM | Nc1cc(=O)[nH]c(=O)n1[C@@H]1O[C@H](CO)C(O)C1O (stereo partly drawn) | > 50 µM | > 50 µM | > 50 µM | > 50 µM | > 50 µM | > 50 µM |
| > 50 µM | 4.4 µM | 15.2 µM | 11.7 µM | 36.2 µM | 1.3 µM | > 50 µM | 1.6 µM | > 50 µM | CC(=O)OCC1OC(n2c(I)cc(=O)[nH]c2=O)C(O)C1O (stereo not drawn) | > 50 µM | > 50 µM | > 50 µM | > 50 µM | > 50 µM | 1.1 µM |
| > 50 µM | > 50 µM | > 50 µM | > 50 µM | > 50 µM | > 50 µM | > 50 µM | > 50 µM | > 50 µM | Cc1cc(=O)[nH]c(=O)n1C1OC(CO)C(O)C1O (stereo not drawn) | > 50 µM | > 50 µM | > 50 µM | > 50 µM | > 50 µM | > 50 µM |
| > 50 µM | > 50 µM | > 50 µM | > 50 µM | > 50 µM | > 50 µM | > 50 µM | > 50 µM | > 50 µM | O=c1[nH]c(=O)n([C@@H]2O[C@H](CO)C(O)C2O)c(I)c1Br (stereo partly drawn) | > 50 µM | > 50 µM | > 50 µM | > 50 µM | > 50 µM | > 50 µM |
| > 50 µM | > 50 µM | > 50 µM | > 50 µM | > 50 µM | > 50 µM | > 50 µM | > 50 µM | > 50 µM | CNc1cc(=O)[nH]c(=O)n1C1OC(CO)C(O)C1O (stereo not drawn) | > 50 µM | > 50 µM | > 50 µM | > 50 µM | > 50 µM | > 50 µM |
| > 50 µM | > 50 µM | > 50 µM | > 50 µM | > 50 µM | > 50 µM | > 50 µM | > 50 µM | > 50 µM | CN(C)c1cc(=O)[nH]c(=O)n1C1OC(CO)C(O)C1O (stereo not drawn) | > 50 µM | > 50 µM | > 50 µM | > 50 µM | > 50 µM | > 50 µM |
|  | > 50 µM | > 50 µM | > 50 µM | > 50 µM | > 50 µM |  | > 50 µM |  | Cc1cc(=O)[nH]c(=O)n1C1CC(O)C(CO)O1 (stereo not drawn) |  |  | > 50 µM |  |  | > 50 µM |
|  | > 50 µM | > 50 µM | > 50 µM | > 50 µM | > 50 µM |  | > 50 µM |  | O=C1C/C(=N\O)N(C2OC(CO)C(O)C2O)C(=O)N1 (stereo not drawn) |  |  | > 50 µM |  |  | > 50 µM |
|  | > 50 µM | > 50 µM | > 50 µM | > 50 µM | > 50 µM |  | > 50 µM |  | O=Cc1cc(=O)[nH]c(=O)n1C1OC(CO)C(O)C1O (stereo not drawn) |  |  | > 50 µM |  |  | > 50 µM |
|  |  | 1 µM | 1.6 µM |  |  |  | 2.1 µM |  | O=c1[nH]cc(F)c(=O)[nH]1 [5-Fluoro-uracil, reference compound] |  |  |  |  |  |  |
